Converted amounts (≈) assume the structure as drawn. The source made the active and inactive calls. The rule behind the calls is not given here.
What was measured:
Isocitrate lyase = Isocitrate lyase (Candida albicans, UniProt Q9P8Q7); assay: Inhibition of Candida albicans ATCC 10231 isocitrate lyase
Candida albicans [1] = assay: Antifungal activity against Candida albicans SC5314 in YNB broth containing 2% glucose as sole carbon source after 72 hrs by broth dilution assay; type: functional; conditions: SC5314, 72 h
Candida albicans [2] = assay: Antifungal activity against Candida albicans ATCC 10231 in YNB broth containing 2% glucose as sole carbon source after 72 hrs by broth dilution assay; type: functional; conditions: ATCC 10231, 72 h
Candida albicans [3] = assay: Antifungal activity against Candida albicans ATCC 10259 in YNB broth containing 2% glucose as sole carbon source after 72 hrs by broth dilution assay; type: functional; conditions: ATCC 10259, 72 h
Candida albicans [4] = assay: Antifungal activity against Candida albicans ATCC 11006 in YNB broth containing 2% glucose as sole carbon source after 72 hrs by broth dilution assay; type: functional; conditions: ATCC 11006, 72 h
Candida albicans [5] = assay: Antifungal activity against Candida albicans ATCC 18804 in YNB broth containing 2% glucose as sole carbon source after 72 hrs by broth dilution assay; type: functional; conditions: ATCC 18804, 72 h
Candida albicans [6] = assay: Antifungal activity against Candida albicans SC5314 in YNB broth containing 2% potassium acetate as sole carbon source after 72 hrs by broth dilution assay; type: functional; conditions: SC5314, 72 h
Candida albicans [7] = assay: Antifungal activity against Candida albicans ATCC 10231 in YNB broth containing 2% potassium acetate as sole carbon source after 72 hrs by broth dilution assay; type: functional; conditions: ATCC 10231, 72 h
Candida albicans [8] = assay: Antifungal activity against Candida albicans ATCC 10259 in YNB broth containing 2% potassium acetate as sole carbon source after 72 hrs by broth dilution assay; type: functional; conditions: ATCC 10259, 72 h
Candida albicans [9] = assay: Antifungal activity against Candida albicans ATCC 11006 in YNB broth containing 2% potassium acetate as sole carbon source after 72 hrs by broth dilution assay; type: functional; conditions: ATCC 11006, 72 h
Candida albicans [10] = assay: Antifungal activity against Candida albicans ATCC 18804 in YNB broth containing 2% potassium acetate as sole carbon source after 72 hrs by broth dilution assay; type: functional; conditions: ATCC 18804, 72 h
Candida albicans [11] = assay: Antifungal activity against Candida albicans SC5314 in YNB broth containing 2% glucose as sole carbon source at 3.12 ug/mL after 72 hrs by broth dilution assay; type: functional, organism-based
Candida albicans [12] = assay: Antifungal activity against Candida albicans MRC10 (deltaicl) in YNB broth containing 2% potassium acetate as sole carbon source at 3.12 ug/mL after 72 hrs by broth dilution assay; type: functional, organism-based
Candida albicans [13] = assay: Antifungal activity against Candida albicans Candida albicans MRC11 (deltaicl + ICL) in YNB broth containing 2% potassium acetate as sole carbon source at 3.12 ug/mL after 72 hrs by broth dilution assay; type: functional, organism-based
Candida albicans [14] = assay: Inhibition of ICL mRNA expression in Candida albicans SC5314 in YNB broth containing 2% potassium acetate as sole carbon source at 3.12 ug/mL after 48 hrs by real time RT-PCR method; type: functional
Candida albicans [15] = assay: Inhibition of ICL mRNA expression in Candida albicans MRC10 (deltaicl) in YNB broth containing 2% potassium acetate as sole carbon source at 3.12 ug/mL after 48 hrs by real time RT-PCR method; type: functional, organism-based
Candida albicans [16] = assay: Inhibition of ICL mRNA expression in Candida albicans MRC11 (deltaicl + ICL) in YNB broth containing 2% potassium acetate as sole carbon source at 3.12 ug/mL after 48 hrs by real time RT-PCR method; type: functional, organism-based

Sequence of Isocitrate lyase (Q9P8Q7 whole entry): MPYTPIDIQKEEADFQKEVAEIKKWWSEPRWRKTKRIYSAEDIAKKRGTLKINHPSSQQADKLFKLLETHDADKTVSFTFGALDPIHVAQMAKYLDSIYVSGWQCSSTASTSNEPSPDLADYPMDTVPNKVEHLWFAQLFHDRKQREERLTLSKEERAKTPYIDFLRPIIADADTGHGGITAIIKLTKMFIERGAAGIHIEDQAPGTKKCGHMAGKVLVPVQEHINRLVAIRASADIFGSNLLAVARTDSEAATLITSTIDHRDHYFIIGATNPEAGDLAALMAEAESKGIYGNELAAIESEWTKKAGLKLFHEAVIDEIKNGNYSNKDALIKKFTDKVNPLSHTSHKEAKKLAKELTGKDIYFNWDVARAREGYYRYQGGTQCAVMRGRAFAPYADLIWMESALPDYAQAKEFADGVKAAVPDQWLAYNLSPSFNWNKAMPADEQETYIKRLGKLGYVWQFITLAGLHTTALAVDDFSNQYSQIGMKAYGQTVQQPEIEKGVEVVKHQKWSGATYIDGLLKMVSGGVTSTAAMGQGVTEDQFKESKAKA

Row | Structure (SMILES) | IC50 (Isocitrate lyase) | MIC (Candida albicans [1]) | MIC (Candida albicans [2]) | MIC (Candida albicans [3]) | MIC (Candida albicans [4]) | MIC (Candida albicans [5]) | MIC (Candida albicans [6]) | MIC (Candida albicans [7]) | MIC (Candida albicans [8]) | MIC (Candida albicans [9]) | MIC (Candida albicans [10]) | growth inhibition (GI) (Candida albicans [11]) | growth inhibition (GI) (Candida albicans [12]) | growth inhibition (GI) (Candida albicans [13]) | fold change (FC) (Candida albicans [14]) | inhibition (Candida albicans [15]) | inhibition (Candida albicans [16])
1 | O=C(O)CC[N+](=O)[O-] | 17.3 µM |  |  |  |  |  |  |  |  |  |  |  |  |  |  |  | 
2 | C[C@@H]1[C@H](O)[C@@H](C)/C=C/C=C/C=C/C=C/C=C/C=C/C=C/[C@H](O[C@@H]2O[C@H](C)[C@@H](O)[C@H](N)[C@@H]2O)C[C@@H]2O[C@](O)(C[C@@H](O)C[C@@H](O)[C@H](O)CC[C@@H](O)C[C@@H](O)CC(=O)O[C@H]1C)C[C@H](O)[C@H]2C(=O)O [AMPHOTERICIN B] |  | 1.56 µg/mL (≈ 1.69 µM) | 1.56 µg/mL (≈ 1.69 µM) | 3.12 µg/mL (≈ 3.38 µM) | 1.56 µg/mL (≈ 1.69 µM) | 1.56 µg/mL (≈ 1.69 µM) | 0.39 µg/mL (≈ 0.422 µM) | 0.78 µg/mL (≈ 0.844 µM) | 1.56 µg/mL (≈ 1.69 µM) | 0.78 µg/mL (≈ 0.844 µM) | 0.78 µg/mL (≈ 0.844 µM) |  |  |  |  |  | 
3 | CC(C)[C@@H]1OC(=O)/C=C/C=C/C=C/C=C/C=C/C=C/C[C@@H](O)C[C@H](O)C[C@H](O)C[C@H](O)C[C@@H](O)C[C@H](O)C[C@@H](O)C[C@@H](O)C[C@@H](O)CC[C@@H]1C [BAHAMAOLIDE A] | 11.8 µM | 25 µg/mL (≈ 35.3 µM) | 25 µg/mL (≈ 35.3 µM) | 25 µg/mL (≈ 35.3 µM) | 12.5 µg/mL (≈ 17.6 µM) | 25 µg/mL (≈ 35.3 µM) | 3.12 µg/mL (≈ 4.4 µM) | 3.12 µg/mL (≈ 4.4 µM) | 3.12 µg/mL (≈ 4.4 µM) | 1.56 µg/mL (≈ 2.2 µM) | 3.12 µg/mL (≈ 4.4 µM) | inactive | Active | Active | 5 | Active | Active

From ChEMBL document CHEMBL3352126, “Bahamaolide A from the marine-derived Streptomyces sp. CNQ343 inhibits isocitrate lyase in Candida albicans” (Bioorg Med Chem Lett, 2014)
